Results taken from PMC8717366, “Synthesis and Pharmacological Characterization of Visabron, a Backbone Cyclic Peptide Dual Antagonist of α4β1 (VLA-4)/α9β1 Integrin for Therapy of Multiple Sclerosis” (JACS Au, 2021).
Peptide text beside a SMILES is read from it.

Assays:
[1] = target: T1, α2β1-collagen I (Homo sapiens, UniProt P05556+P17301); test: Adhesion of α2-K562 overexpressor cells to immobilized collagen I; assay type: cell-based; conditions: α2-K562 overexpressing cells, collagen I; n=6; Table S6; read-out: IC50 α2β1 (linear peptides)
T1 construct: expressed in transfected cells; host or cells: K562 transfected with α2 integrin (gift of Dr. M. Hemler)
Procedure: (§1) Cell adhesion assay was carried out as previously described[47] with minor modifications. The day before the experiment, each well was coated with VCAM-1 (3 mg/mL) immobilized on the 96-well plate in PBS by overnight incubation at 4 °C. Thereafter, nonspecific binding was blocked by incubating the wells with 1% (w/v) bovine serum albumin (BSA) in Hank’s Balanced Salt Solution (HBSS) containing 5 mM MgCl2 at room temperature for 1 h before use. The cells were labeled by incubation with 12.5 μM 5-chloromethylfluorescein diacetate (CMFDA) in HBSS without 1% BSA at 37 °C for 30 min. The labeled cells were then centrifuged at 1000 rpm and washed twice with HBSS containing 1% BSA to remove excess CMFDA. Labeled cells (about 1 × 10^5 cells/well) were plated on each well in the presence or absence of visabrons and incubated at 37 °C for 60 min. Unbound cells were removed by washing the wells three times with 1% (w/v) BSA in HBSS, and bound cells were lysed by the addition of 0.5% Triton X-100 (diluted in DDW). The fluorescence in each well was quantified with a SPECTRAFluor Plus plate reader (Tecan), at λex = 485 nm and λem = 530 nm. To determine the number of adhered cells from the fluorescence values, a standard curve was generated by serial dilution of known numbers of CMFDA-labeled cells. […]
(§2) Table S6. TMLD- linear peptides inhibition of adhesion of integrin expressing cells to the respective immobilized ligands a a The cells were incubated for 30 min at 37 °C with the cells (1 x 105) in the 96 -well plate, previously covered with extracellular matrix ligand, in 100 µL of HBSS containing calcium and magnesium. After being washed with the same buffer, the adhered cells were lysed by Triton X-100, and the plate was read using Tecan spectrofluorimeter. The inhibitory dose 50% (IC 50) values represent ing mean ± standard deviatio ns (n=6) were calculated from dose response curves. bJurkat cells,VCAM -1; c α9-SW480 overexpressing cells, VCAM-1; d α1-K562 overexpressing cells, collagen IV ;e α2-K562 overexpressing cells, collagen I; f K562 wild type

[2] = target: T2, α9β1 (Homo sapiens, UniProt P05556+Q13797); test: Adhesion of α9-SW480 overexpressing cells to VCAM-1; assay type: cell-based; conditions: n=6, Table S6, read-out: IC50 α9β1 (linear peptides)
T2 construct: generated by transfection with full-length α9 expression plasmid pcDNAIneoa9; expressed in transfected cells; host or cells: SW480 transfected with pcDNAIneoa9
T2 sequence (Q13797 30-1035): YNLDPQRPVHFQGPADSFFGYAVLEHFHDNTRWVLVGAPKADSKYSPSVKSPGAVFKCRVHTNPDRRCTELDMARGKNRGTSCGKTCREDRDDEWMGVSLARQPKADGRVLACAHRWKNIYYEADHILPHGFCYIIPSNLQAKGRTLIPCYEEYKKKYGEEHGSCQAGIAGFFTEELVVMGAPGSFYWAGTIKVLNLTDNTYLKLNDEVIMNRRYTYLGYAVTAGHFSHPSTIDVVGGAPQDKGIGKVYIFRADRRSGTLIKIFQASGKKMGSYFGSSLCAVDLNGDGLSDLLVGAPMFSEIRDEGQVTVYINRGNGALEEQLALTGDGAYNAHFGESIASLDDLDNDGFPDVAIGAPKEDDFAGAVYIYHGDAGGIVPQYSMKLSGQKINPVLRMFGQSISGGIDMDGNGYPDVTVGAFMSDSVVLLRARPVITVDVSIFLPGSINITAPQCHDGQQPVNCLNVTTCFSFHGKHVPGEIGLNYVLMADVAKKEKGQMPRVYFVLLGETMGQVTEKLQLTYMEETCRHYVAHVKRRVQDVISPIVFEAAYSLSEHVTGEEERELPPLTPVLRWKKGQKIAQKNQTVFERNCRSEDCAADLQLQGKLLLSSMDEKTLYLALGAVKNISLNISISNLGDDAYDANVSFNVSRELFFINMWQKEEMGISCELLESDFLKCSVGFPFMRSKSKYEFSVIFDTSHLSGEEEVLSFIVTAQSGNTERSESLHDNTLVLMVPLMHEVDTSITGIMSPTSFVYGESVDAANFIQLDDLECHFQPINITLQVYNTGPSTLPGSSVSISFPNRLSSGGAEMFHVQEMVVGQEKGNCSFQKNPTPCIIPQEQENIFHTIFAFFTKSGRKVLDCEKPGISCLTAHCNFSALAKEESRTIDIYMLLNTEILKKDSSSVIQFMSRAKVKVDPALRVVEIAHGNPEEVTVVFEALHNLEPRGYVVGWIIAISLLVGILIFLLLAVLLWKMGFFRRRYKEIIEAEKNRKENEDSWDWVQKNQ
T2 sequence (P05556 21-798): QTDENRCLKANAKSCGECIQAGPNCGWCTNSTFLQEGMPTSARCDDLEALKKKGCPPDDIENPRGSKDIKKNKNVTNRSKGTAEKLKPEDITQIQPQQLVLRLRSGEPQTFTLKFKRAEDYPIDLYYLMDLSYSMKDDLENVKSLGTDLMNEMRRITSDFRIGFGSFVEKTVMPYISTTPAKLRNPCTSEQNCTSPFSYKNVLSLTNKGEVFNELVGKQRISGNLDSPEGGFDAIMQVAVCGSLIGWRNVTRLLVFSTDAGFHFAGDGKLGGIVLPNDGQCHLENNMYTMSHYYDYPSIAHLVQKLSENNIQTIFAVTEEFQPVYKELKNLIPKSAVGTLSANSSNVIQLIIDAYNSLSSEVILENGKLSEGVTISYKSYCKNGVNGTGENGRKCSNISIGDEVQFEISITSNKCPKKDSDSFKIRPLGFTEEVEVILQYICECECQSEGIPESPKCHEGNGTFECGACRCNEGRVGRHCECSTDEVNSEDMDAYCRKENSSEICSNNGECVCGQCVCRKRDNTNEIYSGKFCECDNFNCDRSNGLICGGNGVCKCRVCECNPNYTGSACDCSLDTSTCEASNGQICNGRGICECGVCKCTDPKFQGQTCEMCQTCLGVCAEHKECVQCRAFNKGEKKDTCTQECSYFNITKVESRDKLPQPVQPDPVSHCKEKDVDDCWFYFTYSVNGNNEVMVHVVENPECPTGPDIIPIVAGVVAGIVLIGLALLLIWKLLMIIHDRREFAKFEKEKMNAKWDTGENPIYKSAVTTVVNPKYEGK
Procedure: as §2, with “type […]” for “type”
(1 picture or pasted object on this page, not shown here)

[3] = assay type: in vitro ADME, male Wistar rats; conditions: incubation in rat plasma, 37 °C
Procedure: Figure S7- Metabolic stability of linear (blue) and cyclic Visabrons in rat plasma (n=3) […]
(orange, green, red). The […]
amount of peptides is presented as a percentage of the sample at time 0.
Figure S8- A. Calibration curve of Visabron c(4-4) (prepared by spiking the standard working stock solution with 15 μl of the different concentration, 20 μl metoprolol (10 μg/mL) and 135 -μl blank rat plasma. B. Profile of plasma concentration of Visabron c(4-4) vs time in rats following i.v. bolus administr ation of 0.515 mg/kg; C. semi - logarithmic plot of plasma concentration of Visabron c(4-4) vs time (n = 4 , mean ± SD). […]
For peptide sequencing, the protein digest mixture was subjected to electrospray ionization MS/MS analysis using a QTrap mass spectrometer, equipped with a nanospray source. […] Quantitation of free cysteine residues and disulfide bonds was done as previously described4. […]

[4] = target: T3, α4β1 (Jurkat lymphocytes-VCAM-1) (Homo sapiens, UniProt P05556+P13612); test: Adhesion of Jurkat lymphocytes to immobilized VCAM-1; assay type: cell-based; conditions: Jurkat cells, VCAM-1; n=6; Table S6; read-out: IC50 α4β1 (linear peptides)
T3 construct: host or cells: Jurkat (untreated or TNFα-treated)
T3 sequence (P13612 34-1032): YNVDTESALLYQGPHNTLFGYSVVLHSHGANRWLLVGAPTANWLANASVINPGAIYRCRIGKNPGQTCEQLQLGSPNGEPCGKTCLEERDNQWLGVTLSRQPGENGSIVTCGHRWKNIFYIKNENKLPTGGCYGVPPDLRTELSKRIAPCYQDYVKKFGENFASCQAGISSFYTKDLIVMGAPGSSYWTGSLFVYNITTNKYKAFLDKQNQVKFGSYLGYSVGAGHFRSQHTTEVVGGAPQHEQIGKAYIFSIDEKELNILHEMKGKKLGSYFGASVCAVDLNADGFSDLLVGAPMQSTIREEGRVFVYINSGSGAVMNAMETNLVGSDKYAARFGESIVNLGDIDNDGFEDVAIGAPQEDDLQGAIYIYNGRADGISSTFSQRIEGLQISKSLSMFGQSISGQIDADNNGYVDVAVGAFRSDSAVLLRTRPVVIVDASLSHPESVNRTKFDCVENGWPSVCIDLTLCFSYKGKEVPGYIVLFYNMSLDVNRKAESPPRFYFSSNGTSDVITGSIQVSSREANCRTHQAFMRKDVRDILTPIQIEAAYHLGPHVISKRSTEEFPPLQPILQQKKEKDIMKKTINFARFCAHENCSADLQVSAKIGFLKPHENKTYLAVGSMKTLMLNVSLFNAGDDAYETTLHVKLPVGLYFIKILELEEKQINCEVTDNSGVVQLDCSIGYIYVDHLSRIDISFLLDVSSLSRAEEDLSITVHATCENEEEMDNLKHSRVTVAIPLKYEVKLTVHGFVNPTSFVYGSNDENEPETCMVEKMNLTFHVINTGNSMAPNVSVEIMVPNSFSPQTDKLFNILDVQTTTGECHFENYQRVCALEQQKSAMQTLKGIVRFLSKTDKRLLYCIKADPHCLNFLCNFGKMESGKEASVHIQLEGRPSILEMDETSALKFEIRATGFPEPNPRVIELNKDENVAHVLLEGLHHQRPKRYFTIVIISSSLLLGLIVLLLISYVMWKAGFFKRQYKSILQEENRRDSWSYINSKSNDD
T3 sequence (P05556 21-798): as the sequence (P05556 21-798) above
Procedure: as §1, §2

[5] = target: T4, α5β1-fibronectin (Homo sapiens, UniProt P05556+P08648); test: Adhesion of wild-type K562 cells to immobilized fibronectin; assay type: cell-based; conditions: K562 wild type cells, fibronectin; n=6; Table S6; read-out: IC50 α5β1 (linear peptides)
T4 construct: host or cells: K562 wild type
T4 sequence (P08648 42-894 limits assumed): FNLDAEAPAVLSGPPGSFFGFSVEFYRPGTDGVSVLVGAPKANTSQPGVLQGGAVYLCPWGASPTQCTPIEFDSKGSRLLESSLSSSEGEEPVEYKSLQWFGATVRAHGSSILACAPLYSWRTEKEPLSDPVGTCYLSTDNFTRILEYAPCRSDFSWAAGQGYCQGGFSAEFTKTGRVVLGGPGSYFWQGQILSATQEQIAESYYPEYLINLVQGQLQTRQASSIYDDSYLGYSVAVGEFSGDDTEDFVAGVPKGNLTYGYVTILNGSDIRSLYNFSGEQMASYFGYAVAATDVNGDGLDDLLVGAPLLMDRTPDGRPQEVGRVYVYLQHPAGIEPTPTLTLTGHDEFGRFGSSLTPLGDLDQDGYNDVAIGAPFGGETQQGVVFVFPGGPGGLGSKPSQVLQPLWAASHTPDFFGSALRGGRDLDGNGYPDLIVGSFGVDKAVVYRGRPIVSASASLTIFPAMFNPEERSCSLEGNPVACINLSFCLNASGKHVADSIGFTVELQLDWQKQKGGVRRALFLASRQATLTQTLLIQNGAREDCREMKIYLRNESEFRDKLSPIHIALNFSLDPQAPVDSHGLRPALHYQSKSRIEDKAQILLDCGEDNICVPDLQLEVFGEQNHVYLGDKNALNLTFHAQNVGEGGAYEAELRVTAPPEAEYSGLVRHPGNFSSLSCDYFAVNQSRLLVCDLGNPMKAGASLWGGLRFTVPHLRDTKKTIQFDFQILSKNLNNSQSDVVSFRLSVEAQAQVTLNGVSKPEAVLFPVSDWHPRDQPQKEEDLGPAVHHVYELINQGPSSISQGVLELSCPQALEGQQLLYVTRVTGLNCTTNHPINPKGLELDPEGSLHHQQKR
T4 sequence (P08648 895-1049 limits assumed): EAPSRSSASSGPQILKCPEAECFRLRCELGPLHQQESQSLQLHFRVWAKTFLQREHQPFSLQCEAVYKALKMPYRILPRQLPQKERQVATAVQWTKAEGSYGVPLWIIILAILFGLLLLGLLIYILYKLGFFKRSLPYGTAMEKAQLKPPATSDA
T4 sequence (P05556 21-798): as the sequence (P05556 21-798) above
Procedure: as §1, §2

[6] = target: T5, α1β1-collagen IV (Homo sapiens, UniProt P05556+P56199); test: Adhesion of α1-K562 overexpressor cells to immobilized collagen IV; assay type: cell-based; conditions: α1-K562 overexpressing cells, collagen IV; n=6; Table S6; read-out: IC50 α1β1 (linear peptides)
T5 construct: expressed in transfected cells; host or cells: K562 transfected with α1 integrin (gift of Dr. M. Hemler)
T5 sequence (P56199 29-1179): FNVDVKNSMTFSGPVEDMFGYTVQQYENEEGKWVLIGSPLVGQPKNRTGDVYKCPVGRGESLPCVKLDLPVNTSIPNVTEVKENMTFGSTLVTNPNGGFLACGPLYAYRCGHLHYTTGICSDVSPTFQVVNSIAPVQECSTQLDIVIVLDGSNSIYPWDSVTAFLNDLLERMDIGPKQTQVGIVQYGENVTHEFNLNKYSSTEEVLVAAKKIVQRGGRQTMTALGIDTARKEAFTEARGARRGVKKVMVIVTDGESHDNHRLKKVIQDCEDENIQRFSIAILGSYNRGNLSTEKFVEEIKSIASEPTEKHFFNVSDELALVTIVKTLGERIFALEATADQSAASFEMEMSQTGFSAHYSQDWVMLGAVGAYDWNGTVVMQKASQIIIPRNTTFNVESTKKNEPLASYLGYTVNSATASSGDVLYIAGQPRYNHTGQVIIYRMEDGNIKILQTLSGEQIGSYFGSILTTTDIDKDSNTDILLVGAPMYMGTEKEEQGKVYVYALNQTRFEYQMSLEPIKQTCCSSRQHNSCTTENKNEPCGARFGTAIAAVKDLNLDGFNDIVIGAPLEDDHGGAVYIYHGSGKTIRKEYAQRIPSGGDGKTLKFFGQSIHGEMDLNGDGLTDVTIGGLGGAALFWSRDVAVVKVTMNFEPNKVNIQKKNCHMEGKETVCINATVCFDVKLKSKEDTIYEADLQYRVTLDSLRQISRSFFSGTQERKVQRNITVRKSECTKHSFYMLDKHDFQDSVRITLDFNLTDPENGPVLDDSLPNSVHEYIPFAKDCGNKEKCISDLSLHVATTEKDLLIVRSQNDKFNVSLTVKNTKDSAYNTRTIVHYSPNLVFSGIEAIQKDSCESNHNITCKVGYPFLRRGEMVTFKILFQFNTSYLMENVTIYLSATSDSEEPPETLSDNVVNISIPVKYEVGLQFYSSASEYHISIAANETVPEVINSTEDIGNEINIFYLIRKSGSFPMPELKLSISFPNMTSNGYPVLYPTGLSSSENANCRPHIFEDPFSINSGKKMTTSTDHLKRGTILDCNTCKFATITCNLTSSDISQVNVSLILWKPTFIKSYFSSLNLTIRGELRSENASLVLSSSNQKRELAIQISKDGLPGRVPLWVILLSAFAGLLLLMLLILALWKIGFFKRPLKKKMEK
T5 sequence (P05556 21-798): as the sequence (P05556 21-798) above
Procedure: as §1, §2

Structure (SMILES): CSCC[C@H](NC(=O)[C@@H](NC(=O)CNC(=O)[C@@H](N)CCCCN)[C@@H](C)O)C(=O)N[C@@H](CC(C)C)C(=O)N[C@@H](CC(=O)O)C(=O)NCC(=O)N[C@@H](CC(C)C)C(N)=O [sequence 6, KG39TMLDG44L] (H-KGTMLDGL-NH2; N-terminus and C-terminus assumed)
- IC50 [1]: > 10000 µM
- IC50 [2]: 1450 ± 125 µM
- half-life [3]: 7 min
- IC50 [4]: 1550 ± 125 µM
- IC50 [5]: > 10000 µM
- IC50 [6]: > 10000 µM
